Experimental data reported in PubChem BioAssay (NCI).
“And” between values parts separate entries of the source, which are not always exact repeats. Equal entries are not always repeated.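 Tested at 5 concentrations; 48 h exposure; 96-well plates; endpoints linearly interpolated, else capped at highest concentration. GI50 = concentration required for 50% inhibition of growth. TGI: concentration producing complete growth inhibition.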 *1 amine or outer side, *2 acyl side, *3 side chain or, on linkers, in order; H or OH if unused. Where a SMILES comes first, the peptide text is derived from it. Bridges are numbered along the chain shown (N, C = ends). Roman numbers before positions name the chains, in order. [ ]: non-standard residue; d: D form. Actinocin(9to1) = Cc1c2oc3c(C)ccc(C(=O)[*:1])c3nc-2c(C(=O)[*:2])c(N)c1=O; NMeV = CN[CH](C(=O)O)C(C)C; Sar = CNCC(=O)O

The compounds below were run on MDA-MB-468 breast (assay: NCI tumour cell line growth inhibition, 48 h).
Work on `COc1cccc(Sc2ccc([N+](=O)[O-])c3no[n+]([O-])c23)c1` yielded a GI50 of 2.42 µM and a TGI of 7.61 µM. `CN(C)C[C@H]1CCn2c(c(C3=C(c4cn(C)c5ccccc45)C(=O)NC3=O)c3ccccc32)C1` gave a GI50 of 3.85 µM and a TGI of 7.86 µM. `C=C1C(=O)O[C@H]2[C@H]1CC/C(Cn1cc(Cc3c[nH]c4ccccc34)nn1)=C\CC[C@@]1(C)O[C@@H]21` showed a GI50 of 1.45 µM and a TGI of 3.88 µM. Compound `CCCCC[C@H]1CC=C2C(=O)C=C[C@@H]2CC=CCCCC(=O)O[C@@H](CCCCC)CC=C2C(=O)C=C[C@@H]2CC=CCCCC(=O)O[C@@H](CCCCC)CC=C2C(=O)C=C[C@@H]2CC=CCCCC(=O)O1` has a GI50 of 0.272 µM and a TGI of 0.847 µM. `c1cc(CN2CCCNCCNCCCNCC2)ccc1CN1CCCNCCNCCCNCC1` showed a GI50 greater than 100 µM and a TGI greater than 100 µM. `CC(CN(C)C)S(=O)(=O)c1ccc(-c2cnc(N)c(C(=O)Nc3ccccc3)n2)cc1` (centres undefined) gave a GI50 of 4.98 µM and a TGI of 20.4 µM. With `c1ccc2cc(Cn3cc[n+](Cc4ccc5ccccc5c4)c3)ccc2c1` the GI50 was 0.25 µM and the TGI was 0.849 µM. Work on `CC(C)(C)Nc1nc2c(OCCc3ccccc3)cccn2c1-c1ccc(Cl)cc1` yielded a GI50 of 16.9 µM and a TGI of 45.3 µM. Compound `COc1ccc(-c2nsc3c2NC(=O)CC3c2ccc3c(c2)OCCO3)cc1` (centres undefined) has a GI50 of 0.328 µM and a TGI greater than 100 µM. `O=C1Nc2ccccc2/C1=C\c1cccc(/C=C2/C(=O)Nc3ccccc32)n1` showed a GI50 of 0.336 µM and a TGI of 1.38 µM. `CC(=O)O[C@@]12CO[C@@H]1C[C@H](O)[C@@]1(C)C(=O)[C@H](O)C3=C(C)[C@@H](OC(=O)[C@H](O)[C@@H](NC(=O)OC(C)(C)C)c4ccccc4)C[C@@](O)([C@@H](OC(=O)c4ccccc4)C12)C3(C)C` (some centres undefined) showed a GI50 of less than 0.005 µM. In the case of `CCCCCCCCCCCC[N+](C)(C)Cc1ccccc1`, the GI50 is reported as 0.508 µM and the TGI is reported as 4.25 µM. For `Clc1ccccc1[C@@H]1C[C@@H]2Cc3cc(Br)c4ccccc4c3N1O2`, the GI50 was 1.81 µM and the TGI was 5.67 µM. Work on `COC12C=C/C(=C(/C(=O)OCCSc3ccnn3C)C(=O)CCCCCCCCC3(OC)C=C/C(=C(/C(=O)OCCSc4ccnn4C)C(=O)CCCCCCCC1)O3)O2` yielded a GI50 of 0.951 µM and a TGI of 4.13 µM. `N#Cc1cnc2ccc(-c3cnc4n[nH]nc4c3)cc2c1N1CCc2cc(F)c(Cl)cc21` gave a GI50 of 1.99 µM and a TGI of 10.7 µM. Work on `CCC#CC[C@H](O)C/C=C1/C(=O)C=C[C@@H]1C/C=C\CCCC(=O)OC` yielded a GI50 of 1.23 µM and a TGI of 3.98 µM. `C=CCNc1nc(O)c(/C=C2\C=Nc3ncccc32)s1` showed a GI50 of 1.92 µM and a TGI of 4.13 µM. `CCN(CC)CCCOc1ccc2ncnc(Nc3ccc(Oc4cccc(C(F)(F)F)c4)c(Cl)c3)c2c1` gave a GI50 of 0.879 µM and a TGI of 2.33 µM. With `COc1cc(-c2nn(-c3cccc(NC(=O)NCCNS(=O)(=O)c4ccc(Cl)cc4)c3)cc2-c2ccncc2)ccc1Cl` the GI50 was 0.332 µM and the TGI was 1.67 µM. Work on `CCCCCCCN(CCCCCCC)C(=N)c1ccnc2ccccc12` yielded a GI50 of 1.7 µM and a TGI of 3.37 µM. In the case of `CC(=Nc1ccccc1)C1=C(O)C(Cc2cccc(F)c2)NC1=O` (centres undefined), the GI50 is reported as 0.0364 µM and the TGI is reported as 62 µM. Work on `COc1ccc(C(C#N)=C2C=CC(=NO)C=C2)cc1` yielded a GI50 of 0.833 µM and a TGI of 4.56 µM. With `Cc1cc(C(=O)Nc2cc(Oc3ccc4nc(NC(=O)C5CC5)cn4n3)ccc2C)n(C)n1` the GI50 was 5.51 µM and the TGI was greater than 10 µM. In the case of `CN(C)c1ccc(C(=N)c2ccc(N(C)C)cc2)cc1`, the GI50 is reported as 0.509 µM and 0.759 µM and the TGI is reported as 3 µM and 3.52 µM. With `C=C1C(=O)O[C@H]2[C@H]1CC/C(COC(=O)c1cn(C)c3ccccc13)=C\CC[C@@]1(C)O[C@@H]21` the GI50 was 0.446 µM and the TGI was 1.99 µM. `C[C@]12CC[C@@H]3c4ccc(O)cc4CC[C@H]3[C@@H]1CC[C@@H]2NS(=O)(=O)c1cccc(Cl)c1` showed a GI50 of 1.98 µM and a TGI of 8.12 µM. `O=P(O)(O)OCC1OC(n2cnc3c(NCc4ccco4)ncnc32)C(O)C1O` (centres undefined) showed a GI50 of 2.27 µM and a TGI of 7.66 µM. Work on `COc1cccc(-n2ncc3c(N/N=C/c4ccc(C)cc4)ncnc32)c1` yielded a GI50 greater than 25 µM and a TGI greater than 25 µM. `CCN1C(=O)N(CC)C2C1NN=c1s/c(=C\c3cccs3)c(=O)n12` (centres undefined) showed a GI50 of 0.113 µM and a TGI greater than 100 µM. `CN(C)C(=S)/N=c1\ssc(=S)n1Cc1cccs1` gave a GI50 of 4.07 µM and a TGI greater than 100 µM. Work on `Oc1[nH]c(N=C2N=c3ccccc3=N2)c2ccccc12` yielded a GI50 of 11.2 µM and a TGI of 31.2 µM. Work on `CCN1C(=O)N(CC)C2SC(N/N=C/c3ccccc3F)=NC21` (centres undefined) yielded a GI50 of 0.296 µM and a TGI of 24.7 µM. With `O=C1NCN(c2ccccc2)C12CCN(CCCC(c1ccc(F)cc1)c1ccc(F)cc1)CC2` the GI50 was 1.77 µM and the TGI was 4.37 µM. Work on `Nc1ncnc2c1c(-c1ccc(Oc3ccccc3)cc1)nn2C[C@H]1SSC[C@@H]1O` yielded a GI50 of 0.351 µM and a TGI of 1.63 µM. Work on `Cc1c2oc3c(C)ccc(C(=O)OC(C)C4NC(=O)C(C(C)C)N(C)C(=O)CN(C)C(=O)C5CCCN5C(=O)C(C(C)C)NC4=O)c3nc-2c(C(=O)OC(C)C2NC(=O)C(C(C)C)N(C)C(=O)CN(C)C(=O)C3CCCN3C(=O)C(C(C)C)NC2=O)c(N)c1=O` (centres undefined) (I: cyclo([Sar][NMeV]TVP) / II: cyclo([Sar][NMeV]TVP); linker I:3-II:3 via Actinocin(9to1); configuration not given here) yielded a GI50 of less than 0.01 µM and a TGI of 0.0152 µM. Work on `COc1cc(OC)c(/C=C/C(=O)c2ccc(Nc3ncnc4ccccc34)cc2)c(OC)c1` yielded a GI50 of 0.306 µM and a TGI of 1.55 µM. Compound `O=C(Nc1ccc2ncnc(Nc3ccc(Oc4cccc(F)c4)c(Cl)c3)c2c1)c1ccc(CN2CCOCC2)cc1` has a GI50 of 1.5 µM and a TGI of 6.57 µM. With `O=C1/C(=C/c2ccc(F)c(F)c2)CN(C(=O)C(Cl)Cl)C/C1=C\c1ccc(F)c(F)c1` the GI50 was 0.158 µM and the TGI was 0.352 µM. `CC/C=C\C[C@H](O)C/C=C1/C(=O)C=C[C@@H]1C/C=C\CCCC(=O)OC(C)C` gave a GI50 of 1.29 µM and a TGI of 3.06 µM. `C=C(C)[C@@H]1CC[C@]2(COCCCNCCCN)CC[C@]3(C)[C@H](CC[C@@H]4[C@@]5(C)CC[C@H](OCCCN)C(C)(C)[C@@H]5CC[C@]43C)[C@@H]12` showed a GI50 of 0.882 µM and a TGI of 1.74 µM.
